“And” between values parts separate entries of the source, which are not always exact repeats. Equal entries are not always repeated.
Molecular target: Human His6-CBX7 (Homo sapiens (Human), UniProt O95931)
Assay: CBX7 AlphaScreen assay (binding of CBX7 chromodomain to H3K27me3 peptide)
Conditions: for IC50: average, His6-CBX7 / biotinylated-H3K27me3, read-out: AVG CBX7 Alpha IC50; for improvement in binding affinity compared to the original scaffold: versus Scaffold 2 (FIG. 7)
Text: A biochemical assay was developed based on nanoparticle AlphaScreen assay to monitor the binding of recombinant CBX chromodomain (CBX7) to a methylated peptide (H3K27me3).
The primary assay uses recombinant CBX chromodomain and synthetic, trimethylated H3 histone tail peptide. When CBX/histone tail-binding occurs, AlphaScreen beads are brought in close proximity, resulting in singlet molecular oxygen transfer and production of a luminescent signal. Assay positives inhibiting the binding interaction are therefore expected to prevent complex formation, diminishing signal intensity. The AlphaScreen technology features an anti-Stokes shift in detection: due to energy transfer between beads by singlet oxygen and internal chemical reactions within the acceptor bead, the emission wavelength is blue-shifted relative to the excitation wavelength, which is impossible in traditional fluorescent assays. The relatively long path length of 200 nm that singlet molecular oxygen can travel enables reporting on full protein complexes and not just single target binding. […] Neither the small molecules being tested nor the target protein, CBX7, need to be chemically, conformationally, or behaviorally altered by tethering them to a surface or reporter that may decrease physiological relevance and beget screening artifacts. The primary assay monitors binding of the chromodomain of CBX7 to a histone tail containing a trimethylated lysine at K27, the biologically relevant interaction through which PRC binds to chromatin to repress transcription. This is a robust proximity-based assay that utilizes AlphaScreen technology (PerkinElmer). The assay consists of His6-CBX7 bound to a Ni^++ acceptor bead and the biotinylated histone tail bound to a streptavadin donor bead. Upon CBX7/H3K27me3 binding, the steptavidin bead comes into proximity with the Ni^++ bead to luminesce upon light excitation ([…]; see below).
The protocol for the CBX7 AlphaScreen was as follows: a standard alpha buffer (50 mM HEPES, 150 mM NaCl, 0.1% w/v BSA, 0.01% w/v Tween20) at pH 8.0 and make up two stock solutions at 2× final concentration in the alpha buffer. Solution A contains Human His6-CBX7 is used with biotinylated-H3K27me3 (residues 20-34), at 100 nM and 50 nM respectively. Solution B contains 20 nM streptavidin donor beads and 20 nM nickel acceptor beads. For 384 well assay formats, 10 uL of solution A is added to each well of the assay plate and the plate is spun at 1000 rpm for 30 seconds. 100 nL of experimental compounds from stock plates are delivered by robotic pin transfer using a Janus Workstation (PerkinElmer), allowing the compounds to interact with CBX7 binding prior to assay measurement, followed by another spin and an incubation room temperature. Finally, 10 uL of solution B is added to each well, the plate is spun again and then incubated at room temperature. AlphaScreen measurements are performed on an Envision 2104 (PerkinElmer) utilizing the manufacturer's protocol that has the correct excitation and emission wavelengths, cutoff filters, delay time, etc. A crosstalk calculation is also done through the Envision software to correct for luminescence for adjacent wells while reading the plate. The signal is then normalized to DMSO control wells on the compound plate prior to creation of the IC50 curves.

Sequence of Human His6-CBX7 (O95931 11-69): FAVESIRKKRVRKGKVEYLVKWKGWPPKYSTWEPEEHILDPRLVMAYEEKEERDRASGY

IC50	improvement in binding affinity compared to the original scaffold	SMILES
0.66 µM	–	O=C(Nc1ccc(N2CCCC2)cc1)c1ccc2nc(-c3ccc(O)c(O)c3O)c(NCc3ccccc3)n2c1 [ACV-3-142, 3-(benzylamino)-N-(4-(pyrrolidin-1-yl)phenyl)-2-(2,3,4-trihydroxyphenyl)imidazo[1,2-a]pyridine-6-carboxamide]
0.445 µM	more than 5 fold	O=C(N/N=C/c1c(O)cc(O)cc1O)c1cc(-c2ccco2)nc2ccccc12 [ACV-03]
1.88 µM	more than 5 fold	O=C(N/N=C/c1ccc(N2CCCC2)cc1)c1cc(-c2ccco2)nc2ccccc12 [ACV-05]
13.6 µM	–	CN(C)CCCOc1ccc(/C=N/NC(=O)c2cc(-c3ccco3)nc3ccccc23)cc1 [ACV-06]
194 µM	–	O=C(O)c1cc(-c2ccco2)nc2ccccc12 [ACV-07 (2)]
10.3 µM	–	CN(C)c1ccc(CCNC(=O)c2cc(-c3ccco3)nc3ccccc23)cc1 [ACV-08]
7.39 µM	–	O=C(NCc1cccc(N2CCCC2)n1)c1cc(-c2ccco2)nc2ccccc12 [ACV-09]
20.2 µM	–	CN1CCN(c2ccc(NC(=O)c3cc(-c4ccco4)nc4ccccc34)cc2)CC1 [ACV-10]
8.51 µM	–	O=C(O)c1cc(-c2ccco2)nc2ccc(Br)cc12 [ACV-11]
6.1 µM	–	CN(C)c1ccc(CC(CO)NC(=O)c2cc(-c3ccco3)nc3ccccc23)cc1 (stereo not shown) [ACV-12, N-(1-(4-(dimethylamino)phenyl)-3-hydroxypropan-2-yl)-2-(furan-2-yl)quinoline-4-carboxamide]
69.5 µM	–	O=C(Nc1ccc(CCN2CCCC2)cc1)c1cc(-c2ccco2)nc2ccccc12 [ACV-13]
4.41 µM	–	O=C(CC1S/C(=N/N=C/c2cccnc2)NC1=O)Nc1ccc(N2CCCC2)cc1 (stereo not shown) [ACV-14 (1)]
37.3 µM	–	O=C(CC1S/C(=N/N=C/c2ccccn2)NC1=O)Nc1ccc(N2CCCC2)cc1 (stereo not shown) [ACV-15]
6.79 µM	–	O=C(CC1S/C(=N/N=C/c2ccc(C(=O)O)cc2)NC1=O)Nc1ccc(N2CCCC2)cc1 (stereo not shown) [ACV-16]
1.01 µM	–	O=C(CC1S/C(=N/N=C/c2ccc(O)c(O)c2O)NC1=O)Nc1ccc(N2CCCC2)cc1 (stereo not shown) [ACV-17(3)]
1.56 µM	–	O=C(CC1S/C(=N/N=C/c2ccc(O)c(O)c2O)NC1=O)Nc1ccc(N2CCCC2)cc1 (stereo not shown) [ACV-17(4)]
2.36 µM	–	O=C(CC1S/C(=N/N=C/c2ccc(O)c(O)c2O)NC1=O)Nc1ccc(N2CCCC2)cc1 (stereo not shown) [ACV-17* (P1)]
3.37 µM	–	O=C(CC1S/C(=N/N=C/c2ccc(O)c(O)c2O)NC1=O)Nc1ccc(N2CCCC2)cc1 (stereo not shown) [ACV-17* (P2)]
28.6 µM	–	COC(=O)c1ccc(-c2ccc(/C=N/N=C3\NC(=O)C(CC(=O)Nc4ccc(N5CCCC5)cc4)S3)cc2)cc1 (stereo not shown) [ACV-20]
3.69 µM	–	CN(C)c1ccc(/C=N/N=C2\NC(=O)C(CC(=O)Nc3ccc(N4CCCC4)cc3)S2)cc1 (stereo not shown) [ACV-21]
65.3 µM	–	O=C(CC1SCC(C(=O)N/N=C/c2cccnc2)NC1=O)Nc1ccc(N2CCCC2)cc1 (stereo not shown) [ACV-24]
60.9 µM	–	COc1cc(/C=N/NC(=O)C2CSC(CC(=O)Nc3ccc(N4CCCC4)cc3)C(=O)N2)ccc1O (stereo not shown) [ACV-25]

IC50	improvement in binding affinity compared to the original scaffold	SMILES
16.6 µM	–	O=C(CC1S/C(=N/N=C/c2ccc3cccnc3n2)NC1=O)Nc1ccc(N2CCCC2)cc1 (stereo not shown) [ACV-26]
33.9 µM	–	Cc1ccc(/C=N/N=C2\NC(=O)C(CC(=O)Nc3ccc(N4CCCC4)cc3)S2)cc1F (stereo not shown) [ACV-27]
44.6 µM	–	O=C(CC1S/C(=N/N=C/c2cncnc2)NC1=O)Nc1ccc(N2CCCC2)cc1 (stereo not shown) [ACV-28]
39 µM and 15.5 µM	–	CC(C)(C)c1ccc(/C=N/N=C2\NC(=O)C(CC(=O)Nc3ccc(N4CCCC4)cc3)S2)cc1 (stereo not shown) [ACV-29]
39 µM	–	O=C(CC1S/C(=N/C(=O)c2ccccc2)NC1=O)Nc1ccc(N2CCCC2)cc1 (stereo not shown) [ACV-30]
404 µM	–	O=C(CC1S/C(=N/Cc2cccnc2)NC1=O)Nc1ccc(N2CCCC2)cc1 (stereo not shown) [ACV-31]
23.5 µM	–	O=C(CC1S/C(=N/N=C/c2cccc(-c3ccc(C(=O)O)cc3)c2)NC1=O)Nc1ccc(N2CCCC2)cc1 (stereo not shown) [ACV-32]
56.2 µM	–	O=C(Cc1cccnc1)/N=C1\NC(=O)C(CC(=O)Nc2ccc(N3CCCC3)cc2)S1 (stereo not shown) [ACV-33]
7.9 µM	–	O=C(CC1SCC(C(=O)N/N=C/c2ccc(O)c(O)c2O)NC1=O)Nc1ccc(N2CCCC2)cc1 (stereo not shown) [ACV-34]
10 µM	–	O=C(CC1S/C(=N/N=C/c2ccc(O)c(O)c2)NC1=O)Nc1ccc(N2CCCC2)cc1 (stereo not shown) [ACV-36 (1)]
24.5 µM	–	O=C(CC1S/C(=N/N=C/c2ccc(O)c(O)c2)NC1=O)Nc1ccc(N2CCCC2)cc1 (stereo not shown) [ACV-36 (2)]
114 µM	–	COc1cccc(/C=N/N=C2\NC(=O)C(CC(=O)Nc3ccc(N4CCCC4)cc3)S2)c1OC (stereo not shown) [ACV-37]
165 µM	–	COc1ccc(NC(=O)CC2S/C(=N/N=C/c3cccnc3)NC2=O)cc1OC (stereo not shown) [ACV-38]
26.3 µM	–	O=C(CC1S/C(=N/N=C/c2ccc(Cl)nc2)NC1=O)Nc1ccc(N2CCCC2)cc1 (stereo not shown) [ACV-39]
1450 µM	–	O=C(Cc1cnc(NC(=O)Cc2cccnc2)s1)Nc1ccc(Br)cc1 [ACV-41]
9100 µM	–	COc1ccc(-c2ccc3nc(-c4ccco4)cc(C(=O)NCCc4ccc(N(C)C)cc4)c3c2)cc1OC [ACV-43]
101 µM	–	COc1ccc(-c2ccc3nc(-c4ccco4)cc(C(=O)Nc4ccc(N5CCN(C)CC5)cc4)c3c2)cc1OC [ACV-44]
88.4 µM	–	CN1CCN(c2ccc(NC(=O)Cc3cnc(NC(=O)Cc4cccnc4)s3)cc2)CC1 [ACV-46]
14400 µM	–	O=C(Cc1cnc(NC(=O)Nc2cc(F)c(F)cc2F)s1)Nc1ccc(N2CCCC2)cc1 [ACV-47]
403 µM	–	O=C(Cc1cnc(NC(=O)Cc2cccnc2)s1)Nc1ccc(N2CCCC2)cc1 [ACV-48 (1)]
607 µM	–	O=C(Cc1cnc(NC(=O)Cc2cccnc2)s1)Nc1ccc(N2CCCC2)cc1 [ACV-48 (2)]
17.2 µM	–	O=C(Cc1cnc(NC(=O)Nc2ccc(F)cc2)s1)Nc1ccc(N2CCCC2)cc1 [ACV-49]

IC50	improvement in binding affinity compared to the original scaffold	SMILES
7.2 µM	–	COc1cc(NC(=O)Nc2ncc(CC(=O)Nc3ccc(N4CCCC4)cc3)s2)cc(OC)c1OC [ACV-50]
24.1 µM	–	O=C(Cc1cnc(NC(=O)Nc2cccc(C(F)(F)F)c2)s1)Nc1ccc(N2CCCC2)cc1 [ACV-51]
12.5 µM	–	COc1ccc(NC(=O)Nc2ncc(CC(=O)Nc3ccc(N4CCCC4)cc3)s2)cc1OC [ACV-53]
9.31 µM	–	O=C(Cc1cnc(NC(=O)Nc2cccc(Cc3ccccc3)c2)s1)Nc1ccc(N2CCCC2)cc1 [ACV-54]
23 µM	–	O=C(Cc1cnc(NC(=O)Nc2cccnc2)s1)Nc1ccc(CN2CCCC2)cc1 [ACV-55]
64.1 µM	–	O=C(COCc1cccnc1)N1CCN(C(=O)c2ccc(CCN3CCCC3)cc2)CC1 [ACV-56]
336 µM	–	O=C(COCc1ccc(CN2CCCC2)cc1)N1CCN(C(=O)c2cccnc2)CC1 [ACV-57]
759 µM	–	C(=N\Nc1nc(-c2ccc(OCc3ccccc3)cc2)cs1)/c1cccnc1 [ACV-59]
0.364 µM	–	NC(=S)N/N=C/c1ccc(O)c(O)c1O [ACV-60]
3.94 µM	–	O=C(Nc1csc(N/N=C/c2ccc(O)c(O)c2O)n1)c1ccc(CCN2CCCC2)cc1 [ACV-61]
0.861 µM	–	Oc1ccc(/C=N/Nc2nc(-c3ccc(N4CCCC4)cc3)cs2)c(O)c1O [ACV-62]
22.5 µM	–	CN1CCN(CCNC(=O)CC2S/C(=N/N=C/c3ccc(O)c(O)c3O)NC2=O)CC1 (stereo not shown) [ACV-63 (2)]
5.22 µM	–	O=C(O)c1ccc(-c2csc(N/N=C/c3ccc(O)c(O)c3O)n2)cc1 [ACV-64]
11.9 µM	–	CN(C)c1ccc(CCNC(=O)CC2SC(N/N=C/c3ccc(O)c(O)c3O)=NC2=O)cc1 (stereo not shown) [ACV-66]
46.7 µM	–	O=C(CCC(=O)c1ccc(CN2CCCC2)cc1)NC1CCCN(C(=O)c2cccnc2)C1 (stereo not shown) [ACV-70]
4920 µM	–	O=C(CCC(=O)N1CCCC(NC(=O)c2cccnc2)C1)c1ccc(CN2CCCC2)cc1 (stereo not shown) [ACV-71]
124 µM	–	COc1cccc(C(=O)N2CCN(C(=O)COc3cccc(C)c3)CC2)c1OC [ACV-72]
1.65 µM	–	O=C(NCCN1CCCC1)c1ccc(-c2csc(N/N=C/c3ccc(O)c(O)c3O)n2)cc1 [ACV-73]
167 µM	–	O=C(Cc1cnc(NC(=O)C(F)(F)c2ccccc2)s1)Nc1ccc(N2CCCC2)cc1 [ACV-74]
0.0686 µM	–	CN1CCN(CCNC(=O)c2ccc(-c3csc(N/N=C/c4ccc(O)c(O)c4O)n3)cc2)CC1 [ACV-75]
3.76 µM	–	CN(C)c1ccc(CCNC(=O)CC2SC(N/N=C/c3ccc(N4CCCC4)cc3)=NC2=O)cc1 (stereo not shown) [ACV-76]

From US12129248B2, “Chromobox protein inhibitors and uses thereof” (Dana-Farber Cancer Institute, Inc., priority 2016, dated 2024)
